Patent US20250129135A1, “Multi-Agonist and Use Thereof” (priority 2021, published 2025)
Starred links: 1 amine or outer side, 2 acyl side, 3 side chain; linkers in the order of their positions; H or OH if unused. Non-standard residues stand in square brackets, D forms with d. Residues, ends and D or L forms follow the SMILES beside them. Groups on a side chain read outwards from the residue. *: point of attachment. C20 diacid = O=C(O)CCCCCCCCCCCCCCCCCCC(=O)*; αMePhe(2-F) = C[C@](N)(Cc1ccccc1F)C(=O)O; γGlu = O=C(O)[C@H](CCC(=O)[*:2])N[*:1]; αMeF = C[C@](N)(Cc1ccccc1)C(=O)O; αMeL = CC(C)C[C@](C)(N)C(=O)O; AEEA = NCCOCCOCC(=O)O; Ac3c = NC1(C(=O)O)CC1; Aib = CC(C)(N)C(=O)O

Tests used:
Human GCG R = molecular target: T1, Human GCG R (Homo sapiens, UniProt P47871); assay: cAMP (HTRF) activity in HEK-293 cells stably overexpressing human GCG receptor; assay type: cell-based; settings: EC50 of human GCG / EC50 of compound
T1 construct: expressed in transfected cells; host or cells: HEK-293
Summary of the method: (§1)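 Cells resuspended in HBSS are incubated with compound for 60 min at room temperature, then with HTRF cAMP detection reagent for a further 60 min. Concentration-response fits give agonist EC50 values in nM.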

Human GLP-1R = Human GLP-1R (Homo sapiens, UniProt P43220); assay: cAMP (HTRF) activity in HEK-293 cells stably overexpressing human GLP-1 receptor; assay type: cell-based; design: expressed in transfected cells; host or cells: HEK-293; settings: for Human GLP-1R Rel. A (Relative Activity): EC50 of human GLP-1 (7-37) / EC50 of compound; for EC50: stable transfected cell cAMP activity, at least 3 independent tests
Summary of the method: as §1

C57 BL/6J DIO mice = assay: In vivo pharmacodynamics in high-fat diet induced obesity (DIO) mice; design: species or system mouse; settings: Table 9-1; 3 nmol/kg; Day 15; Mean±SEM
Excerpt: High-fat diet induced obesity (DIO) mice have characteristics such as obesity, elevated blood sugar, insulin resistance, and lipid abnormalities, all of which are very significant metabolic syndromes similar to a human body. The effects of the compounds of the present application on body weight, food intake, blood sugar, and lipids in C57 BL/6J DIO mice were studied.
Obesity was induced in mice by feeding with a high-fat diet (60 kcal % of calories from fat). […] After grouping, one animal was raised in each cage for one week, during which each of the animals was injected subcutaneously (S.C.) with a solvent (1×PBS, 5 ml/kg) to pre-adapt the experimental operation process.
After the preparation of animals, vehicle control or compounds were administered to groups of animals by subcutaneous injection, in which the compounds were dissolved in 1×PBS, the dosage was 5 ml/kg, and the administration operation was started at 9:00 am and conducted once every three days (Q3D) for 15 days. Throughout the entire experimental study, animal weight and food intake were measured daily before administration, and compared with initial weight and food intake of the same animal before administration to calculate a percentage change in animal weight (%) and cumulative food intake, so as to evaluate the impact of compounds on changes in body weight and food intake.
At the end point of the experiment (Day 15), the body weight of the mice was measured, and then fasting blood glucose was measured by taking blood from the tail tip of broken tail without anesthesia. After the blood collection, the animals were anesthetized with CO2 and euthanized. Then, blood was taken from the heart and plasma was separated by centrifugation. The plasma was used to measure total cholesterol (TC), low-density lipoprotein cholesterol (LDL-C), triglycerides (TG), and blood insulin content. The liver was separated for homogenization, and then centrifuged to obtain the supernatant for determining triglyceride content in the liver.
All results were expressed in Mean±SEM, and the results were analyzed by one-way ANOVA using GraphPad Prism 5 software, followed by Dunnett's post hoc test compared to the Vehicle control group. The difference at the p<0.05 level was considered statistically significant.

Human GIP R = molecular target: T2, Human GIP R (Homo sapiens, UniProt P48546); assay: cAMP (HTRF) activity in CHO cells stably overexpressing GIP receptor; assay type: cell-based; settings: for Human GIP R Rel. A (Relative Activity): EC50 of human GIP / EC50 of compound
T2 construct: expressed in transfected cells; host or cells: CHO
T2 sequence (P48546 22-466): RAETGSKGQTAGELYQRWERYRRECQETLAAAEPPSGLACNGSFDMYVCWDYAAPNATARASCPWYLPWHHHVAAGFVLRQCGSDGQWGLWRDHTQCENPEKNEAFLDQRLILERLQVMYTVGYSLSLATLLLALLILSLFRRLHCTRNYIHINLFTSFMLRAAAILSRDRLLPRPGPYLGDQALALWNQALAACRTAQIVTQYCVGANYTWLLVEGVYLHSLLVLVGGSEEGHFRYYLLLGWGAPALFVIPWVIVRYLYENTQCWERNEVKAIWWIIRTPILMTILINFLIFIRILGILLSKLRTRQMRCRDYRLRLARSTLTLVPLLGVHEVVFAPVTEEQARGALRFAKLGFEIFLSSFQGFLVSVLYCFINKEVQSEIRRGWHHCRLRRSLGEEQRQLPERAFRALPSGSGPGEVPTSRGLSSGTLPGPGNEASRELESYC
Summary of the method: as §1

3T3-L1 adipocytes = settings: for Rel. A (Relative Activity) on 3T3-L1 adipocyte: relative to GIP
Summary of the method: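 Compound-induced cAMP was measured in mature 3T3-L1 adipocytes after 60 min room-temperature exposure to a 10-concentration, 3-fold dilution series, followed by 60 min with kit detection reagent and curve fitting. Differentiation used IBMX/dexamethasone/insulin (5 days), insulin with 10 uM rosiglitazone (3 days), then 2–3 days in 10% FBS.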

[1] = system: human primary liver cells; assay type: cell-based; settings: for Rel. A (Relative Activity) on human primary liver cells: relative to GCG
Summary of the method: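 cAMP readout after 60 min with detection reagent, following 60 min room-temperature compound incubation. Cells were primary human liver cells thawed at 37° C and resuspended in HBSS.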

RIN-m5F cells = assay type: cell-based, rat; settings: for Rel. A (Relative Activity) on RIN-m5F: relative to GLP-1(7-37)
Summary of the method: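 After 60 min room-temperature exposure of HBSS-suspended RIN-m5F cells to compound and another 60 min with detection reagent, cellular cAMP level was determined.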

Sequence of Human GLP-1R (P43220 24-463): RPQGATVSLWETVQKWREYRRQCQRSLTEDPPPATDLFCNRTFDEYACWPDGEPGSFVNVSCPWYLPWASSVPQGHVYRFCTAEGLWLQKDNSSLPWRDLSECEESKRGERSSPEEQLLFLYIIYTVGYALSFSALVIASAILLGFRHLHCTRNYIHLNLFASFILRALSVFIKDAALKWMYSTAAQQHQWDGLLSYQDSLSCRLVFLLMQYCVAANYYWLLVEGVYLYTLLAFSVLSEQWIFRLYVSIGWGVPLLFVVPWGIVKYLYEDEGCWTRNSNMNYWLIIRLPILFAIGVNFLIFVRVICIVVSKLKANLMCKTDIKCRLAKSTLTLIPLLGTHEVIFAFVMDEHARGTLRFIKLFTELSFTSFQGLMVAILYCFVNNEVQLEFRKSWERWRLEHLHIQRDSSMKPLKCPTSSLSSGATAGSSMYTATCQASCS
T1 sequence (P47871 26-477): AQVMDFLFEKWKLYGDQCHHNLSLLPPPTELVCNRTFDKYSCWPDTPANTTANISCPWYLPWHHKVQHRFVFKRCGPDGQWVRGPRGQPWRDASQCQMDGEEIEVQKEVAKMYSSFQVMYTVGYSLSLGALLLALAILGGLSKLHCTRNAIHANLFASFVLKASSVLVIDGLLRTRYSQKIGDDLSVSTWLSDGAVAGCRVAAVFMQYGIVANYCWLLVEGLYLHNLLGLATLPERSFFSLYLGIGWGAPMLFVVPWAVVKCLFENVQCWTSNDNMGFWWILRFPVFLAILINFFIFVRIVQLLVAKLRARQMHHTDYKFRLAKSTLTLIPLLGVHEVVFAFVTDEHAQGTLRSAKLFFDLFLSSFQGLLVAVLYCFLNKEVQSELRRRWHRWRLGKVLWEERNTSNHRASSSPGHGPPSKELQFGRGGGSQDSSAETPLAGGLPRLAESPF

Human GCG R Rel. A (Relative Activity) (Human GCG R) [%]	Human GLP-1R Rel. A (Relative Activity) (Human GLP-1R) [%]	Human GIP R Rel. A (Relative Activity) (Human GIP R) [%]	EC50 (Human GIP R; stable transfected cell cAMP activity, at least 3 independent tests) [nM]	EC50 [1] [nM]	EC50 (RIN-m5F cells) [nM]	EC50 (Human GLP-1R) [nM]	Structure (SMILES)	Liver TG (C57 BL/6J DIO mice) [mg]	EC50 (3T3-L1 adipocytes) [nM]	Rel. A (Relative Activity) on 3T3-L1 adipocyte (3T3-L1 adipocytes) [%]	Rel. A (Relative Activity) on human primary liver cells [1] [%]	Rel. A (Relative Activity) on RIN-m5F (RIN-m5F cells) [%]
75.00	93.62	861.90	0.021	5.19	0.274	–	CC[C@H](C)[C@H](NC(=O)[C@H](Cc1ccccc1)NC(=O)[C@H](C)NC(=O)C(C)(C)NC(=O)[C@H](CCC(N)=O)NC(=O)[C@H](C)NC(=O)[C@H](CCCCNC(=O)COCCOCCNC(=O)COCCOCCNC(=O)CC[C@H](NC(=O)CCCCCCCCCCCCCCCCCCC(=O)O)C(=O)O)NC(=O)[C@H](CCCCN)NC(=O)[C@H](CC(=O)O)NC(=O)[C@H](CC(C)C)NC(=O)[C@H](Cc1ccccc1)NC(=O)[C@@H](NC(=O)[C@H](CO)NC(=O)[C@H](Cc1ccc(O)cc1)NC(=O)[C@H](CC(=O)O)NC(=O)[C@H](CO)NC(=O)[C@@H](NC(=O)[C@](C)(Cc1ccccc1F)NC(=O)[C@@H](NC(=O)CNC(=O)[C@H](CCC(N)=O)NC(=O)C(C)(C)NC(=O)[C@@H](N)Cc1ccc(O)cc1)[C@@H](C)O)[C@@H](C)O)[C@@H](C)CC)C(=O)N[C@@H](CCC(=O)O)C(=O)N[C@@H](Cc1ccccc1)C(=O)N[C@@H](CC(C)C)C(=O)N[C@@H](CC(C)C)C(=O)N[C@@H](CCC(=O)O)C(=O)N[C@@H](CO)C(=O)N[C@@H](Cc1c[nH]cn1)C(=O)N1CCC[C@H]1C(=O)N[C@@H](CO)C(=O)N[C@@H](CO)C(=O)NCC(=O)N[C@@H](C)C(=O)N1CCC[C@H]1C(=O)N1CCC[C@H]1C(=O)NC1(C(=O)N[C@@H](CO)C(N)=O)CC1 [Compound 10] (H-Y[Aib]QGT[αMePhe(2-F)]TSDYSIFLDKK([AEEA-AEEA-γGlu-C20 diacid])AQ[Aib]AFIEFLLESHPSSGAPP[Ac3c]S-NH2)	81.6 ± 8.50	6.16	61.76	75.00	376.64
11.52	488.89	258.57	–	1.36	0.359	0.009	CC[C@H](C)[C@H](NC(=O)[C@H](Cc1ccccc1)NC(=O)[C@H](C)NC(=O)C(C)(C)NC(=O)[C@H](CCC(N)=O)NC(=O)[C@H](C)NC(=O)[C@H](CCCCNC(=O)COCCOCCNC(=O)COCCOCCNC(=O)CC[C@H](NC(=O)CCCCCCCCCCCCCCCCCCC(=O)O)C(=O)O)NC(=O)[C@H](CCCCN)NC(=O)[C@H](CC(=O)O)NC(=O)[C@H](CC(C)C)NC(=O)[C@H](CC(C)C)NC(=O)[C@@H](NC(=O)[C@H](CO)NC(=O)[C@H](Cc1ccc(O)cc1)NC(=O)[C@H](CC(=O)O)NC(=O)[C@H](CO)NC(=O)[C@@H](NC(=O)[C@](C)(Cc1ccccc1)NC(=O)[C@@H](NC(=O)CNC(=O)[C@H](CCC(N)=O)NC(=O)C(C)(C)NC(=O)[C@@H](N)Cc1ccc(O)cc1)[C@@H](C)O)[C@@H](C)O)[C@@H](C)CC)C(=O)N[C@@H](CCC(=O)O)C(=O)N[C@@H](Cc1ccccc1)C(=O)N[C@@H](CC(C)C)C(=O)N[C@@H](CC(C)C)C(=O)N[C@@H](CCC(=O)O)C(=O)N[C@@H](CO)C(=O)N[C@@H](Cc1c[nH]cn1)C(=O)N1CCC[C@H]1C(=O)N[C@@H](CO)C(=O)N[C@@H](CO)C(=O)NC(C)(C)C(=O)N[C@@H](Cc1c[nH]cn1)C(=O)N1CCC[C@H]1C(=O)N1CCC[C@H]1C(=O)NC1(C(=O)N[C@@H](CO)C(N)=O)CC1 [Compound 42] (H-Y[Aib]QGT[αMeF]TSDYSILLDKK([AEEA-AEEA-γGlu-C20 diacid])AQ[Aib]AFIEFLLESHPSS[Aib]HPP[Ac3c]S-NH2; N-terminus assumed)	–	2.73	139.17	285.26	287.47
44.88	440.00	441.46	–	0.463	0.26	0.01	CC[C@H](C)[C@H](NC(=O)[C@H](Cc1ccccc1)NC(=O)[C@H](C)NC(=O)C(C)(C)NC(=O)[C@H](CCC(N)=O)NC(=O)[C@H](C)NC(=O)[C@H](CCCCNC(=O)COCCOCCNC(=O)COCCOCCNC(=O)CC[C@H](NC(=O)CCCCCCCCCCCCCCCCCCC(=O)O)C(=O)O)NC(=O)[C@H](CCCCN)NC(=O)[C@H](CC(=O)O)NC(=O)[C@H](CC(C)C)NC(=O)[C@](C)(CC(C)C)NC(=O)[C@@H](NC(=O)[C@H](CO)NC(=O)[C@H](Cc1ccc(O)cc1)NC(=O)[C@H](CC(=O)O)NC(=O)[C@H](CO)NC(=O)[C@@H](NC(=O)[C@](C)(Cc1ccccc1F)NC(=O)[C@@H](NC(=O)CNC(=O)[C@H](CCC(N)=O)NC(=O)C(C)(C)NC(=O)[C@@H](N)Cc1ccc(O)cc1)[C@@H](C)O)[C@@H](C)O)[C@@H](C)CC)C(=O)N[C@@H](CCC(=O)O)C(=O)N[C@@H](Cc1ccc(O)cc1)C(=O)N[C@@H](CC(C)C)C(=O)N[C@@H](CC(C)C)C(=O)N[C@@H](CCC(=O)O)C(=O)N[C@@H](CO)C(=O)N[C@@H](Cc1c[nH]cn1)C(=O)N1CCC[C@H]1C(=O)N[C@@H](CO)C(=O)N[C@@H](CO)C(=O)NC(C)(C)C(=O)N[C@@H](Cc1c[nH]cn1)C(=O)N1CCC[C@H]1C(=O)N1CCC[C@H]1C(=O)NC1(C(=O)N[C@@H](CO)C(N)=O)CC1 [Compound 43] (H-Y[Aib]QGT[αMePhe(2-F)]TSDYSI[αMeL]LDKK([AEEA-AEEA-γGlu-C20 diacid])AQ[Aib]AFIEYLLESHPSS[Aib]HPP[Ac3c]S-NH2)	–	1.36	279.97	840.39	396.92
